{"source": "paper PMC7915026", "about": "“Sulfaguanidine Hybrid with Some New Pyridine-2-One Derivatives: Design, Synthesis, and Antimicrobial Activity against Multidrug-Resistant Bacteria as Dual DNA Gyrase and DHFR Inhibitors” (Antibiotics, 2021)", "key": {"[1]": {"test_system": "P. aeruginosa ATCC BAA-2111", "assay": "MIC and MBC against multidrug-resistant strains", "assay_type": "cell-based", "conditions": "P. aeruginosa ATCC BAA-2111", "source_text": "(§1) Norfloxacin was used as a positive control for the multidrug resistance study.\n(§2) The experiment was repeating for three-times."}, "[2]": {"test_system": "S. aureus ATCC 33591", "assay": "MIC and MBC against multidrug-resistant strains", "assay_type": "cell-based", "conditions": "Staphylococcus aureus, ATCC33591, S. aureus ATCC 33591", "source_text": "as §1, §2"}, "[3]": {"test_system": "E. coli ATCC BAA-196", "assay": "MIC and MBC against multidrug-resistant strains", "assay_type": "cell-based", "conditions": "E. coli ATCC BAA-196", "source_text": "as §1, §2"}, "[4]": {"test_system": "S. aureus ATCC 43300", "assay": "MIC and MBC against multidrug-resistant strains", "assay_type": "cell-based", "conditions": "Staphylococcus aureus, ATCC43300, S. aureus ATCC 43300", "source_text": "as §1, §2"}, "[5]": {"target": "E. coli DHFR (dihydrofolate reductase) (Escherichia coli, UniProt P0ABQ4)", "sequence (P0ABQ4 whole entry)": "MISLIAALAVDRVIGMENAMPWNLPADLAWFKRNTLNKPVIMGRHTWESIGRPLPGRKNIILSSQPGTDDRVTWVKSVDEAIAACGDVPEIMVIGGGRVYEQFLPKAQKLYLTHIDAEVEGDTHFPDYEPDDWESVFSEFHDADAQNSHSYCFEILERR", "assay": "In vitro DHFR enzymatic assay", "assay_type": "biochemical"}, "[6]": {"test_system": "C. albicans (ATCC 10231)", "assay": "MIC and MFC determination", "assay_type": "cell-based"}, "[7]": {"test_system": "B. subtilis ATCC 6633", "assay": "MIC and MBC determination", "assay_type": "cell-based", "conditions": "B. subtilis"}, "[8]": {"test_system": "CD4+ and CD8+ T lymphocytes", "assay": "In vivo T lymphocyte subsets from peripheral blood, flow cytometry", "conditions": "mice"}, "[9]": {"target": "S. aureus DNA gyrase (Staphylococcus aureus, UniProt P0A0K8+P20831)", "sequence (P20831 whole entry)": "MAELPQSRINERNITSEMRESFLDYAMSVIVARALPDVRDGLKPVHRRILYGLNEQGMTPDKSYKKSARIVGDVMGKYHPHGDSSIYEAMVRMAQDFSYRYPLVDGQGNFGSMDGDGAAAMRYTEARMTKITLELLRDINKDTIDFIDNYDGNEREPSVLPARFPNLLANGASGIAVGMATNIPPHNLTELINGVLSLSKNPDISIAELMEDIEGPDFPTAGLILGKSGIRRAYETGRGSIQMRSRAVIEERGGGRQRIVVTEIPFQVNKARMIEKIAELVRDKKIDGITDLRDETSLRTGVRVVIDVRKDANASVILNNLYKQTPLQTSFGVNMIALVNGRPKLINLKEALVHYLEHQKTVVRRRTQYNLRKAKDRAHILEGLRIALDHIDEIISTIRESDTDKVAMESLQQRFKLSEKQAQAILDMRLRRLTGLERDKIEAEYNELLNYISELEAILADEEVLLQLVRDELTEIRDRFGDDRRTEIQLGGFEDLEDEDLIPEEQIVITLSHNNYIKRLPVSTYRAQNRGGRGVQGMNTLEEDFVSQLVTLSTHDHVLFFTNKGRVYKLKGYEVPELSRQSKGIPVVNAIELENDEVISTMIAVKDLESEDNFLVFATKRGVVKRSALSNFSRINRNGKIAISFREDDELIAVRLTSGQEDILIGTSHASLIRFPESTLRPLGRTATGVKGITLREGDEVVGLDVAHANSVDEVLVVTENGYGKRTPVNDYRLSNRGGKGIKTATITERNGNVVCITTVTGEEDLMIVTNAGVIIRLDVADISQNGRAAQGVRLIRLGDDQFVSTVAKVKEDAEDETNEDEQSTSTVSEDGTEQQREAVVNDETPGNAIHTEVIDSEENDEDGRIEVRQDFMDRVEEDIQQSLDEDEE", "sequence (P0A0K8 whole entry)": "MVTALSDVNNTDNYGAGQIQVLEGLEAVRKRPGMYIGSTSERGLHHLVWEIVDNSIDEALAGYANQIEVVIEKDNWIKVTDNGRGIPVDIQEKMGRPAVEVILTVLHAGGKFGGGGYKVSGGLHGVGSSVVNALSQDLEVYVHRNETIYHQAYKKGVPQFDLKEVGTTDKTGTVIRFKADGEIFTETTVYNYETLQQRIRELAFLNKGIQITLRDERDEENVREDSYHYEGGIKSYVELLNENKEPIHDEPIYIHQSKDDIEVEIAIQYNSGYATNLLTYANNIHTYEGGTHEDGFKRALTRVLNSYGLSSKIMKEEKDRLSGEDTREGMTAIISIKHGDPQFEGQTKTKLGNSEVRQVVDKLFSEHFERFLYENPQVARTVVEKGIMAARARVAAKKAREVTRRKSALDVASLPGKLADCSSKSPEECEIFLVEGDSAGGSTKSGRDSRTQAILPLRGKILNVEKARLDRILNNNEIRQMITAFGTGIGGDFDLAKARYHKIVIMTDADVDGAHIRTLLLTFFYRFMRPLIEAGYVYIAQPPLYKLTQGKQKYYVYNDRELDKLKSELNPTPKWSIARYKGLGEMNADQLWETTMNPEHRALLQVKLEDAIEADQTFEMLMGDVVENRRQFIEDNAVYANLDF", "assay": "In vitro DNA gyrase supercoiling enzymatic assay", "assay_type": "biochemical"}, "[10]": {"test_system": "F. oxysporum (RCMB 008002)", "assay": "MIC and MFC determination", "assay_type": "cell-based"}, "[11]": {"test_system": "Salmonella typhi (S. typhi ATCC 6539)", "assay": "microbe, parasite or virus in culture", "assay_type": "cell-based", "conditions": "Salmonella enterica, Salmonella typhi"}, "[12]": {"test_system": "E. coli ATCC 25922", "assay": "MIC and MBC determination", "assay_type": "cell-based", "conditions": "E. coli"}, "[13]": {"test_system": "spleen and thymus", "assay": "In vivo immunomodulation: immune organ weight and indexes", "set-up": "Spleen index: unit not given here", "conditions": "mice", "source_text": "Both the spleen and thymus have important antibacterial and fungal immune organ responses, and any change in weight, and indexes can reflect the level of immune regulation. Additionally, the relative spleen and thymus indexes are important indices for nonspecific immunity and potential immunomodulatory compounds that increase the spleen and thymus weight. This increase is due to immune cells’ stimulation in the spleen and thymus. […]"}, "[14]": {"test_system": "P. aeruginosa ATCC BAA-2111", "assay": "Inhibition zone against multidrug-resistant bacteria", "assay_type": "cell-based", "conditions": "MDRB P. aeruginosa ATCC BAA-2111", "summary_of_the_method": "(§3)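 Agar diffusion; IZ diameter in mm. Positive control: norfloxacin.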"}, "[15]": {"test_system": "S. aureus ATCC 33591", "assay": "Inhibition zone against multidrug-resistant bacteria", "assay_type": "cell-based", "conditions": "MDRB S. aureus ATCC 33591", "summary_of_the_method": "as §3"}, "[16]": {"test_system": "E. coli ATCC BAA-196", "assay": "Inhibition zone against multidrug-resistant bacteria", "assay_type": "cell-based", "conditions": "MDRB E. coli ATCC BAA-196", "summary_of_the_method": "as §3"}, "[17]": {"test_system": "S. aureus ATCC 43300", "assay": "Inhibition zone against multidrug-resistant bacteria", "assay_type": "cell-based", "conditions": "MDRB S. aureus ATCC 43300", "summary_of_the_method": "as §3"}, "[18]": {"test_system": "S. typhi ATCC 6539", "assay": "Inhibition zone, paper disk/agar diffusion", "assay_type": "cell-based", "conditions": "S. typhi; Na = no activity", "summary_of_the_method": "as §3"}, "[19]": {"test_system": "S. aureus ATCC 29213", "assay": "Inhibition zone, paper disk/agar diffusion", "assay_type": "cell-based", "conditions": "S. aureus; Na = no activity", "summary_of_the_method": "as §3"}, "[20]": {"test_system": "C. albicans (ATCC 10231)", "assay": "Inhibition zone, paper disk/agar diffusion", "assay_type": "cell-based", "conditions": "Na = no activity", "summary_of_the_method": "as §3"}, "[21]": {"test_system": "E. coli ATCC 25922", "assay": "Inhibition zone, paper disk/agar diffusion", "assay_type": "cell-based", "conditions": "E. coli; Na = no activity", "summary_of_the_method": "as §3"}, "[22]": {"test_system": "P. aeruginosa ATCC 27853", "assay": "Inhibition zone, paper disk/agar diffusion", "assay_type": "cell-based", "conditions": "P. aeruginosa; Na = no activity", "summary_of_the_method": "as §3"}, "[23]": {"test_system": "F. oxysporum (RCMB 008002)", "assay": "Inhibition zone, paper disk/agar diffusion", "assay_type": "cell-based", "conditions": "Na = no activity", "summary_of_the_method": "as §3"}, "[24]": {"test_system": "E. faecalis ATCC 29212", "assay": "Inhibition zone, paper disk/agar diffusion", "assay_type": "cell-based", "conditions": "E. faecalis; Na = no activity", "summary_of_the_method": "as §3"}, "[25]": {"test_system": "MDRB strains", "assay": "MIC and MBC, ranges over the MDRB panel", "assay_type": "cell-based", "conditions": "four MDRB strains", "source_text": "as §1, §2"}, "[26]": {"test_system": "neutrophils", "assay": "In vitro intracellular killing, nitro blue tetrazolium (NBT) reduction assay", "assay_type": "cell-based", "procedure": "One of the broad methods used for determining immune disorders for patients in hospitals is the NBT test to measure their immune responses. The reduction in NBT dye provides information about the phagocytic and intracellular killing functions of neutrophils, which are important for microbiocidal activity. The most promising derivatives (2a, 2b, 2d, 3a, 8, and 11) were evaluated against in vitro intracellular killing activities using a nitro blue tetrazolium (NBT) reduction assay and the obtained results expressed in percentage (%): increasing the percentage led to an improvement in the killing ability of the neutrophils used as innate immunity.\nIn vitro intracellular killing activities for the most promising six derivatives 2a, 2b, 2d, 3a, 8, and 11 were performed according to reported methods."}}, "note": "Read-outs that look alike come from different tables or passages of the source.", "data": [{"smiles": "COc1ccc(/C=C(\\C#N)C(=O)Nc2ccc(S(=O)(=O)NC(=N)N)cc2)cc1O", "note": "[Compound 2d, N-(4-(N-Carbamimidoylsulfamoyl)phenyl)-2-cyano-3-(3-hydroxy-4-methoxyphenyl) acryl-amide]", "values": [{"measurement": "MBC", "setting": "[1]", "value": "18.77 ± 0.61", "unit": "µM"}, {"measurement": "MIC", "setting": "[1]", "value": "9.38 ± 0.49", "unit": "µM"}, {"measurement": "MBC", "setting": "[1]; Pseudomonas aeruginosa, ATCCBAA2111, read-out: MBC", "value": 18.8, "unit": "µM"}, {"measurement": "MIC", "setting": "[1]; Pseudomonas aeruginosa, ATCCBAA2111, read-out: MIC", "value": 9.38, "unit": "µM"}, {"measurement": "MBC", "setting": "[2]; read-out: MBC", "value": "18.8 ± 0.25", "unit": "µM"}, {"measurement": "MIC", "setting": "[2]; read-out: MIC", "value": "9.38 ± 0.32", "unit": "µM"}, {"measurement": "MBC", "setting": "[3]", "value": "9.38 ± 0.54", "unit": "µM"}, {"measurement": "MIC", "setting": "[3]", "value": "4.69 ± 0.36", "unit": "µM"}, {"measurement": "MBC", "setting": "[3]; Escherichia coli, ATCCBAA196, read-out: MBC", "value": 9.38, "unit": "µM"}, {"measurement": "MIC", "setting": "[3]; Escherichia coli, ATCCBAA196, read-out: MIC", "value": 4.69, "unit": "µM"}, {"measurement": "MBC", "setting": "[4]; read-out: MBC", "value": "9.38 ± 0.41", "unit": "µM"}, {"measurement": "MIC", "setting": "[4]; read-out: MIC", "value": "4.69 ± 0.25", "unit": "µM"}, {"measurement": "IC50", "setting": "[5]", "value": "4.33 ± 0.18", "unit": "µM"}, {"measurement": "fold relative to trimethoprim", "setting": "[5]; E. coli DHFR IC50", "value": 1.19, "unit": "fold"}, {"measurement": "MFC", "setting": "[6]", "value": "37.60 ± 0.38", "unit": "µM"}, {"measurement": "MFC/MIC", "setting": "[6]", "value": "<2"}, {"measurement": "MIC", "setting": "[6]", "value": "18.80 ± 0.65", "unit": "µM"}, {"measurement": "MFC", "setting": "[6]; Candida albicans, ATCC10231, read-out: MFC", "value": 37.6, "unit": "µM"}, {"measurement": "MIC", "setting": "[6]; Candida albicans, ATCC10231, read-out: MIC", "value": 18.8, "unit": "µM"}, {"measurement": "MBC", "setting": "[7]", "value": "9.38 ± 0.96", "unit": "µM"}, {"measurement": "MIC", "setting": "[7]", "value": "4.69 ± 0.98", "unit": "µM"}, {"measurement": "MBC", "setting": "[7]; Bacillus subtilis, ATCC6633, read-out: MBC", "value": 9.38, "unit": "µM"}, {"measurement": "MIC", "setting": "[7]; Bacillus subtilis, ATCC6633, read-out: MIC", "value": 4.69, "unit": "µM"}, {"measurement": "T cells CD4+", "setting": "[8]", "value": "79.61 ± 0.3", "unit": "%"}, {"measurement": "T cells CD8+", "setting": "[8]", "value": "27.05 ± 0.5", "unit": "%"}, {"measurement": "IC50", "setting": "[9]", "value": "18.2 ± 1.18", "unit": "µM"}, {"measurement": "MFC", "setting": "[10]", "value": "66.84 ± 0.85", "unit": "µM"}, {"measurement": "MFC/MIC", "setting": "[10]", "value": "<2"}, {"measurement": "MIC", "setting": "[10]", "value": "37.60 ± 0.25", "unit": "µM"}, {"measurement": "MFC", "setting": "[10]; Fusarium oxysporum, RCMB008002, read-out: MFC", "value": 66.8, "unit": "µM"}, {"measurement": "MIC", "setting": "[10]; Fusarium oxysporum, RCMB008002, read-out: MIC", "value": 37.6, "unit": "µM"}, {"measurement": "MBC", "setting": "[11]; read-out: MBC", "value": "30.1 ± 0.75", "unit": "µM"}, {"measurement": "MIC", "setting": "[11]; read-out: MIC", "value": "18.8 ± 0.85", "unit": "µM"}, {"measurement": "MBC", "setting": "[12]", "value": "4.66 ± 0.21", "unit": "µM"}, {"measurement": "MIC", "setting": "[12]", "value": "2.33 ± 0.32", "unit": "µM"}, {"measurement": "MBC", "setting": "[12]; Escherichia coli, ATCC25922, read-out: MBC", "value": 4.66, "unit": "µM"}, {"measurement": "MIC", "setting": "[12]; Escherichia coli, ATCC25922, read-out: MIC", "value": 2.33, "unit": "µM"}, {"measurement": "Spleen index", "setting": "[13]", "value": "0.018 ± 0.00"}, {"measurement": "Spleen weight", "setting": "[13]", "value": "250 ± 0.03", "unit": "mg"}, {"measurement": "Thymus index", "setting": "[13]", "value": "0.532 ± 0.06", "unit": "mg/g"}, {"measurement": "Thymus weight", "setting": "[13]", "value": "15.56 ± 0.54", "unit": "mg"}, {"measurement": "Mean Diameter of Inhibition Zone", "setting": "[14]", "value": "26 ± 0.41", "unit": "mm"}, {"measurement": "Mean Diameter of Inhibition Zone", "setting": "[15]", "value": "24 ± 0.32", "unit": "mm"}, {"measurement": "Mean Diameter of Inhibition Zone", "setting": "[16]", "value": "25 ± 0.86", "unit": "mm"}, {"measurement": "Mean Diameter of Inhibition Zone", "setting": "[17]", "value": "27 ± 0.3", "unit": "mm"}, {"measurement": "Mean Diameter of the Inhibition Zone", "setting": "[18]", "value": "29 ± 0.20", "unit": "mm"}, {"measurement": "Mean Diameter of the Inhibition Zone", "setting": "[19]", "value": "33 ± 0.53", "unit": "mm"}, {"measurement": "Mean Diameter of the Inhibition Zone", "setting": "[20]", "value": "27 ± 0.50", "unit": "mm"}, {"measurement": "Mean Diameter of the Inhibition Zone", "setting": "[21]", "value": "30 ± 0.29", "unit": "mm"}, {"measurement": "Mean Diameter of the Inhibition Zone", "setting": "[22]", "value": "27 ± 0.73", "unit": "mm"}, {"measurement": "Mean Diameter of the Inhibition Zone", "setting": "[23]", "value": "22 ± 0.11", "unit": "mm"}, {"measurement": "Mean Diameter of the Inhibition Zone", "setting": "[24]", "value": "29 ± 0.17", "unit": "mm"}, {"measurement": "MBC range", "setting": "[25]", "value": "9.38 to 18.77", "unit": "µM"}, {"measurement": "MIC range", "setting": "[25]", "value": "4.69 to 9.38", "unit": "µM"}, {"measurement": "Intracellular Killing Activity", "setting": "[26]", "value": "142.4 ± 0.98", "unit": "%"}]}]}
